Assay results taken from PubChem BioAssay AID1918996 (Molecular Pharmacology Branch, DTP, NCI, 2023).
pIC50: −log10 of the molar value.

Test system: 349418-098-R-PDC complex spheroid growth
Assay: Anticancer human tumor 349418-098-R-PDC patient-derived lung adenocarcinoma cell line growth inhibition [AhR]
Details: for pIC50: curve of first compound; for viability, T/C: stronger effect = lower value
Outline: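 Agents were dosed in half-log steps down from roughly clinical Cmax, or from 10 microM where Cmax was unknown, alone and with AhR antagonists. Read-out: percent test/control growth of tumor spheroids containing HUVEC and MSC stromal cells.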

[1] = second compound 0.1 µM, first compound 0.00949 µM
[2] = second compound 0.1 µM, first compound 0.03 µM
[3] = second compound 0.1 µM, first compound 0.0949 µM
[4] = second compound 0.1 µM, first compound 0.3 µM
[5] = second compound 0.316 µM, first compound 0.00949 µM
[6] = second compound 0.316 µM, first compound 0.03 µM
[7] = second compound 0.316 µM, first compound 0.0949 µM
[8] = second compound 0.316 µM, first compound 0.3 µM
[9] = second compound 1 µM, first compound 0.00949 µM
[10] = second compound 1 µM, first compound 0.03 µM
[11] = second compound 1 µM, first compound 0.0949 µM
[12] = second compound 1 µM, first compound 0.3 µM
[13] = second compound 3.16 µM, first compound 0.00949 µM
[14] = second compound 3.16 µM, first compound 0.03 µM
[15] = second compound 3.16 µM, first compound 0.0949 µM
[16] = second compound 3.16 µM, first compound 0.3 µM
[17] = second compound 10 µM, first compound 0.00949 µM
[18] = second compound 10 µM, first compound 0.03 µM
[19] = second compound 10 µM, first compound 0.0949 µM
[20] = second compound 10 µM, first compound 0.3 µM
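Also: spheroids exposed to agents for seven days before luminescence viability read.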
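For viability, T/C in this document: spheroids also contain HUVEC endothelial cells and human MSC stroma.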

CC1COCCN1c1cc(C2(S(C)(=N)=O)CC2)nc(-c2ccnc3[nH]ccc23)n1 (stereo not given) + Cc1ccccc1N=Nc1ccc(NC(=O)c2ccnn2C)c(C)c1
pIC50 (second compound 0.1 µM): 5.68
pIC50 (second compound 0.316 µM): 5.70
pIC50 (second compound 1 µM): 5.71
pIC50 (second compound 3.16 µM): 5.69
pIC50 (second compound 10 µM): 5.99
viability, T/C (second compound 0.1 µM, first compound 0.0316 µM): 87%
viability, T/C (second compound 0.1 µM, first compound 0.1 µM): 110%
viability, T/C (second compound 0.1 µM, first compound 0.316 µM): 86.5%
viability, T/C (second compound 0.1 µM, first compound 1 µM): 83.6%
viability, T/C (second compound 0.1 µM, first compound 3.16 µM): 31%
viability, T/C (second compound 0.1 µM, first compound 10 µM): 14.4%
viability, T/C (second compound 0.316 µM, first compound 0.0316 µM): 87.8%
viability, T/C (second compound 0.316 µM, first compound 0.1 µM): 78%
viability, T/C (second compound 0.316 µM, first compound 0.316 µM): 78.6%
viability, T/C (second compound 0.316 µM, first compound 1 µM): 89.7%
viability, T/C (second compound 0.316 µM, first compound 3.16 µM): 27.7%
viability, T/C (second compound 0.316 µM, first compound 10 µM): 13.4%
viability, T/C (second compound 1 µM, first compound 0.0316 µM): 89.2%
viability, T/C (second compound 1 µM, first compound 0.1 µM): 123%
viability, T/C (second compound 1 µM, first compound 0.316 µM): 86.8%
viability, T/C (second compound 1 µM, first compound 1 µM): 66.8%
viability, T/C (second compound 1 µM, first compound 3.16 µM): 39.9%
viability, T/C (second compound 1 µM, first compound 10 µM): 16%
viability, T/C (second compound 3.16 µM, first compound 0.0316 µM): 90.8%
viability, T/C (second compound 3.16 µM, first compound 0.1 µM): 76.9%
viability, T/C (second compound 3.16 µM, first compound 0.316 µM): 97.9%
viability, T/C (second compound 3.16 µM, first compound 1 µM): 79.3%
viability, T/C (second compound 3.16 µM, first compound 3.16 µM): 31.8%
viability, T/C (second compound 3.16 µM, first compound 10 µM): 15.3%
viability, T/C (second compound 10 µM, first compound 0.0316 µM): 69.5%
viability, T/C (second compound 10 µM, first compound 0.1 µM): 70.1%
viability, T/C (second compound 10 µM, first compound 0.316 µM): 56.6%
viability, T/C (second compound 10 µM, first compound 1 µM): 55.5%
viability, T/C (second compound 10 µM, first compound 3.16 µM): 28.9%
viability, T/C (second compound 10 µM, first compound 10 µM): 17.1%

Nc1ncn(C2CC(O)C(CO)S2)c(=O)n1 (stereo not given) + Cc1ccccc1N=Nc1ccc(NC(=O)c2ccnn2C)c(C)c1
pIC50 (second compound 0.1 µM): 7.04
pIC50 (second compound 0.316 µM): 7.09
pIC50 (second compound 1 µM): 7.19
pIC50 (second compound 3.16 µM): 6.96
pIC50 (second compound 10 µM): 7.24
viability, T/C (second compound 0.1 µM, first compound 0.000949 µM): 116%
viability, T/C (second compound 0.1 µM, first compound 0.003 µM): 87.8%
viability, T/C [1]: 83.4%
viability, T/C [2]: 59.1%
viability, T/C [3]: 60.5%
viability, T/C [4]: 28.6%
viability, T/C (second compound 0.316 µM, first compound 0.000949 µM): 111%
viability, T/C (second compound 0.316 µM, first compound 0.003 µM): 63.5%
viability, T/C [5]: 105%
viability, T/C [6]: 70.2%
viability, T/C [7]: 47.7%
viability, T/C [8]: 26.6%
viability, T/C (second compound 1 µM, first compound 0.000949 µM): 91.5%
viability, T/C (second compound 1 µM, first compound 0.003 µM): 92.7%
viability, T/C [9]: 98.7%
viability, T/C [10]: 67.5%
viability, T/C [11]: 41.4%
viability, T/C [12]: 20.8%
viability, T/C (second compound 3.16 µM, first compound 0.000949 µM): 52.2%
viability, T/C (second compound 3.16 µM, first compound 0.003 µM): 72.7%
viability, T/C [13]: 72.2%
viability, T/C [14]: 66.2%
viability, T/C [15]: 54.5%
viability, T/C [16]: 18.1%
viability, T/C (second compound 10 µM, first compound 0.000949 µM): 73.6%
viability, T/C (second compound 10 µM, first compound 0.003 µM): 67.5%
viability, T/C [17]: 65.7%
viability, T/C [18]: 62.1%
viability, T/C [19]: 40.8%
viability, T/C [20]: 28.9%

O=C(C=Cn1cnc(-c2cc(C(F)(F)F)cc(C(F)(F)F)c2)n1)NNc1cnccn1 + Cc1ccccc1N=Nc1ccc(NC(=O)c2ccnn2C)c(C)c1
pIC50 (second compound 0.1 µM): 7.75
pIC50 (second compound 0.316 µM): > 8.02
pIC50 (second compound 1 µM): > 8.02
pIC50 (second compound 3.16 µM): > 8.02
pIC50 (second compound 10 µM): > 8.02
viability, T/C [1]: 67.2%
viability, T/C [2]: 35.2%
viability, T/C [3]: 17.2%
viability, T/C [4]: 11.2%
viability, T/C (second compound 0.1 µM, first compound 0.949 µM): 9.1%
viability, T/C (second compound 0.1 µM, first compound 3 µM): 7.11%
viability, T/C [5]: 37.7%
viability, T/C [6]: 25.4%
viability, T/C [7]: 16.2%
viability, T/C [8]: 12.2%
viability, T/C (second compound 0.316 µM, first compound 0.949 µM): 10.2%
viability, T/C (second compound 0.316 µM, first compound 3 µM): 5.73%
viability, T/C [9]: 37.8%
viability, T/C [10]: 29.9%
viability, T/C [11]: 19.4%
viability, T/C [12]: 11.9%
viability, T/C (second compound 1 µM, first compound 0.949 µM): 8.42%
viability, T/C (second compound 1 µM, first compound 3 µM): 5.99%
viability, T/C [13]: 47.9%
viability, T/C [14]: 33.7%
viability, T/C [15]: 16.9%
viability, T/C [16]: 11.4%
viability, T/C (second compound 3.16 µM, first compound 0.949 µM): 8.44%
viability, T/C (second compound 3.16 µM, first compound 3 µM): 7.46%
viability, T/C [17]: 34.6%
viability, T/C [18]: 22.8%
viability, T/C [19]: 18.5%
viability, T/C [20]: 13.8%
viability, T/C (second compound 10 µM, first compound 0.949 µM): 9.78%
viability, T/C (second compound 10 µM, first compound 3 µM): 7.95%
